In ChEMBL document CHEMBL1201862, “PubChem BioAssay data set” (2004):
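96-well plates; 48 h exposure; 5 concentrations. Endpoints by linear interpolation between flanking doses. Not reached: highest tested concentration assigned. GI50: concentration for 50% inhibition of growth.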 The source made the active and inactive calls. Rule as the data show it: active = GI50 up to about 1.1 µM and inactive = higher.

Tests used:
Assay in all cases: DTP human tumour cell line panel, 48 h
CAKI-1 = system: CAKI-1
CCRF-CEM = system: CCRF-CEM
COLO 205 = system: COLO 205
HCC 2998 = system: HCC 2998
HL-60 = system: HL-60
KM-20L2 = system: KM-20L2
LXFL 529 = system: LXFL 529
M14 = system: M14
MOLT-4 = system: MOLT-4
OVCAR-5 = system: OVCAR-5
OVCAR-8 = system: OVCAR-8
RPMI-8226 = system: RPMI-8226
RXF 393 = system: RXF 393
SN12C = system: SN12C
TK-10 = system: TK-10
UACC-257 = system: UACC-257
UO-31 = system: UO-31
HCT-116 = system: HCT-116
HOP-62 = system: HOP-62
MCF7 = system: MCF7

Row | SMILES | GI50 (CAKI-1) | GI50 (CCRF-CEM) | GI50 (COLO 205) | GI50 (HCC 2998) | GI50 (HL-60) | GI50 (KM-20L2) | GI50 (LXFL 529) | GI50 (M14) | GI50 (MOLT-4) | GI50 (OVCAR-5) | GI50 (OVCAR-8) | GI50 (RPMI-8226) | GI50 (RXF 393) | GI50 (SN12C) | GI50 (TK-10) | GI50 (UACC-257) | GI50 (UO-31) | GI50 (HCT-116) | GI50 (HOP-62) | GI50 (MCF7)
1 | COC(=O)CN(C)P(=O)(N1CC1)N1CC1 | > 100 µM (inactive) | 36.9 µM (inactive) | > 100 µM (inactive) | > 100 µM (inactive) | 26.9 µM (inactive) | > 100 µM (inactive) | > 100 µM (inactive) | > 100 µM (inactive) | 33 µM (inactive) | > 100 µM (inactive) | > 100 µM (inactive) | > 100 µM (inactive) | > 100 µM (inactive) | 69.5 µM (inactive) | > 100 µM (inactive) | > 100 µM (inactive) | > 100 µM (inactive) | – | – | –
2 | COc1ccc(/N=C\c2ccc(N(CCC#N)S(=O)(=O)c3ccccc3)cc2C)cc1 | 35.5 µM (inactive) | 30.2 µM (inactive) | 27.2 µM (inactive) | 32 µM (inactive) | 16.9 µM (inactive) | 12 µM (inactive) | 8.99 µM (inactive) | 14.6 µM (inactive) | 27.4 µM (inactive) | > 100 µM (inactive) | > 100 µM (inactive) | > 100 µM (inactive) | > 100 µM (inactive) | > 100 µM (inactive) | 22.9 µM (inactive) | 39.5 µM (inactive) | 23.3 µM (inactive) | 87.1 µM (inactive) | 25.1 µM (inactive) | –
3 | O=C1CCCC/C1=C1/SC(=N/c2ccccc2)/C(=N\c2ccccc2)N1c1ccccc1 | > 100 µM (inactive) | > 100 µM (inactive) | > 100 µM (inactive) | > 100 µM (inactive) | > 100 µM (inactive) | – | – | > 100 µM (inactive) | 34.2 µM (inactive) | > 100 µM (inactive) | > 100 µM (inactive) | > 100 µM (inactive) | 0.0378 µM (active) | > 100 µM (inactive) | – | – | 91.4 µM (inactive) | > 100 µM (inactive) | 36.1 µM (inactive) | 68.7 µM (inactive)
4 | O=c1c(-c2ccccc2)c(SCCN2CCOCC2)n(-c2ccccc2)c(=S)n1-c1ccccc1 | 52 µM (inactive) | > 100 µM (inactive) | > 100 µM (inactive) | > 100 µM (inactive) | > 100 µM (inactive) | – | – | – | > 100 µM (inactive) | > 100 µM (inactive) | 63 µM (inactive) | > 100 µM (inactive) | 46.9 µM (inactive) | – | 46.6 µM (inactive) | > 100 µM (inactive) | – | – | 74 µM (inactive) | 80.9 µM (inactive)
5 | CCNC(=S)NNC(=O)c1nsc2ccccc12 | – | 31 µM (inactive) | > 100 µM (inactive) | > 100 µM (inactive) | 59.4 µM (inactive) | 64.9 µM (inactive) | 53.3 µM (inactive) | > 100 µM (inactive) | 50.9 µM (inactive) | > 100 µM (inactive) | > 100 µM (inactive) | 51.8 µM (inactive) | 44.6 µM (inactive) | 55.1 µM (inactive) | > 100 µM (inactive) | > 100 µM (inactive) | 52.8 µM (inactive) | 96.8 µM (inactive) | 73.6 µM (inactive) | –
6 | O=C(Nc1ccc([N+](=O)[O-])cc1)C(=O)C(C(=O)c1ccccc1F)C1OC(=O)c2ccccc21 (stereo not given) | 59.4 µM (inactive) | 16.6 µM (inactive) | 25.9 µM (inactive) | 21 µM (inactive) | 22.2 µM (inactive) | 33.9 µM (inactive) | 33.7 µM (inactive) | 69.7 µM (inactive) | 26 µM (inactive) | 58.3 µM (inactive) | 35.9 µM (inactive) | 18.2 µM (inactive) | 50.9 µM (inactive) | 30.8 µM (inactive) | > 100 µM (inactive) | 86.5 µM (inactive) | 38.1 µM (inactive) | 31.6 µM (inactive) | 58.1 µM (inactive) | –
7 | Nc1nc2ccc3ccccc3c2[nH]1 | > 10 µM (inactive) | > 10 µM (inactive) | > 10 µM (inactive) | > 10 µM (inactive) | > 10 µM (inactive) | – | – | > 10 µM (inactive) | > 10 µM (inactive) | > 10 µM (inactive) | > 10 µM (inactive) | > 10 µM (inactive) | > 10 µM (inactive) | > 10 µM (inactive) | > 10 µM (inactive) | – | 5.66 µM (inactive) | > 10 µM (inactive) | > 10 µM (inactive) | > 10 µM (inactive)
8 | CN(C)CCOc1cc2c(c3ccccc13)-c1ccccc1C2O (stereo not given) | 12.9 µM (inactive) | 14.1 µM (inactive) | 12.5 µM (inactive) | 14.4 µM (inactive) | 11.6 µM (inactive) | 15.6 µM (inactive) | – | – | 3.33 µM (inactive) | 13 µM (inactive) | 11.7 µM (inactive) | 12.6 µM (inactive) | 1.47 µM (inactive) | 13.4 µM (inactive) | – | 15.5 µM (inactive) | 12.5 µM (inactive) | 13.2 µM (inactive) | 14.9 µM (inactive) | 12.8 µM (inactive)
9 | CS(C)(=O)=Nn1c(=O)n2n(c1=O)C1c3ccccc3C2c2ccccc21 | > 100 µM (inactive) | > 100 µM (inactive) | > 100 µM (inactive) | – | > 100 µM (inactive) | – | – | > 100 µM (inactive) | > 100 µM (inactive) | > 100 µM (inactive) | > 100 µM (inactive) | > 100 µM (inactive) | > 100 µM (inactive) | – | > 100 µM (inactive) | > 100 µM (inactive) | > 100 µM (inactive) | – | > 100 µM (inactive) | > 100 µM (inactive)
10 | O=C(NNC(=S)Nc1ccccc1)c1nsc2ccccc12 | – | 0.36 µM (active) | 39.7 µM (inactive) | 55 µM (inactive) | 20.1 µM (inactive) | 30.8 µM (inactive) | 28.1 µM (inactive) | 14.3 µM (inactive) | 20.7 µM (inactive) | 57 µM (inactive) | 28.6 µM (inactive) | 16 µM (inactive) | 40.7 µM (inactive) | 31.5 µM (inactive) | 41.3 µM (inactive) | 33.3 µM (inactive) | 25.5 µM (inactive) | 25.2 µM (inactive) | 36.7 µM (inactive) | –
11 | CSC1SCC2C(=O)N(C)C(C(C)C)C(=O)OCC(NC(=O)c3cnc4ccccc4n3)C(=O)NC(C)C(=O)N(C)C1C(=O)N(C)C(C(C)C)C(=O)OCC(NC(=O)c1cnc3ccccc3n1)C(=O)NC(C)C(=O)N2C (stereo not given) | 0.0075 µM (active) | 0.00925 µM (active) | 0.0075 µM (active) | 0.0075 µM (active) | 0.0193 µM (active) | 0.0075 µM (active) | – | 0.000828 µM (active) | 0.0075 µM (active) | 0.0075 µM (active) | 0.0075 µM (active) | 0.0075 µM (active) | 0.00895 µM (active) | 0.0075 µM (active) | 0.00152 µM (active) | – | 0.0083 µM (active) | 0.00885 µM (active) | 0.0075 µM (active) | 0.0075 µM (active)
12 | COc1cc([C@@H]2c3cc4c(cc3[C@H](O)[C@H]3COC(=O)[C@H]23)OCO4)cc(OC)c1OC [PODOFILOX] | 0.0897 µM (active) | < 0.005 µM (active) | < 0.005 µM (active) | – | < 0.005 µM (active) | – | 0.01 µM (active) | – | < 0.005 µM (active) | 0.0375 µM (active) | < 0.005 µM (active) | < 0.005 µM (active) | – | – | – | 29.9 µM (inactive) | – | < 0.005 µM (active) | – | < 0.005 µM (active)
